Measured values published in ChEMBL document CHEMBL1201862, “PubChem BioAssay data set” (2004).
Calls of active or inactive are those of the source. Rule as the data show it, for most assays here: actives have a measured IC50 and inactives only a lower limit.

What was measured:
[1] = biological target: T1, Histone-lysine N-methyltransferase NSD2 (Homo sapiens, UniProt O96028); assay type: biochemical
T1 sequence (O96028 whole entry): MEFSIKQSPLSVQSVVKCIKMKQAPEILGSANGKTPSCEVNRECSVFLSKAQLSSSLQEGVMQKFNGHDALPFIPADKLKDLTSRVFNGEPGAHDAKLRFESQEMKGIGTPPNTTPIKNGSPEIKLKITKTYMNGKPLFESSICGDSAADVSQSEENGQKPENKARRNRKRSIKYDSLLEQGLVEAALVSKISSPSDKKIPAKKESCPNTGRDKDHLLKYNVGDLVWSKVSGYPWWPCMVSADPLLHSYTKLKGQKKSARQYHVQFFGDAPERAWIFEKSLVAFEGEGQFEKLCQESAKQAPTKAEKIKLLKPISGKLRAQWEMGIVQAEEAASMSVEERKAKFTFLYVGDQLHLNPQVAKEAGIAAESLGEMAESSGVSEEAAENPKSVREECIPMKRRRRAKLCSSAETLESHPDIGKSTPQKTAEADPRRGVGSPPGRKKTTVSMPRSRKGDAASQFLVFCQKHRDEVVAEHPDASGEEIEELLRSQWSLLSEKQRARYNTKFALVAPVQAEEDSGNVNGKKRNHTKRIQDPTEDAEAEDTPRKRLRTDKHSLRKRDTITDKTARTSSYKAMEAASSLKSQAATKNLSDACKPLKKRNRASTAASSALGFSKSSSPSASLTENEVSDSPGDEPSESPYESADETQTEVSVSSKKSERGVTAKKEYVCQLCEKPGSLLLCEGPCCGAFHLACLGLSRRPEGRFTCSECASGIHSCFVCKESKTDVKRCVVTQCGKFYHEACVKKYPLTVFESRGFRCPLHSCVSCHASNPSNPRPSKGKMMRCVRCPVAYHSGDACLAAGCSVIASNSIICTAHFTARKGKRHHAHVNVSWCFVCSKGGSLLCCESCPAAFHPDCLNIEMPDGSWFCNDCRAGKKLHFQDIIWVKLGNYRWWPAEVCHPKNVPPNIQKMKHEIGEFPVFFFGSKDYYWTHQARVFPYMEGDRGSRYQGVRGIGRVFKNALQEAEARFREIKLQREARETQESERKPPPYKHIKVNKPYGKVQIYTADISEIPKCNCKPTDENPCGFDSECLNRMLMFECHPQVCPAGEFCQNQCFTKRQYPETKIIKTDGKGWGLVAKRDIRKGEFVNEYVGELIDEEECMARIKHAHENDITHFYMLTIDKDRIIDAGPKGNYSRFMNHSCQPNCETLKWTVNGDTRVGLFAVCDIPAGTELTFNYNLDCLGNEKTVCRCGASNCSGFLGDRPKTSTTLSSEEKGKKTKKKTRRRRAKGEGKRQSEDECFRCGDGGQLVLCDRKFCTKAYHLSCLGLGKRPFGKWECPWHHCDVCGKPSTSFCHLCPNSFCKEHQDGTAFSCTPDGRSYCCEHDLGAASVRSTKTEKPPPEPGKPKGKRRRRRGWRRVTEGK

[2] = biological target: T2, Sentrin-specific protease 8 (Homo sapiens, UniProt Q96LD8); assay type: functional;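 also: luminescence read-out of SENP8 inhibition, dose-response confirmation following an ultra-high-throughput screen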
T2 sequence (Q96LD8 whole entry): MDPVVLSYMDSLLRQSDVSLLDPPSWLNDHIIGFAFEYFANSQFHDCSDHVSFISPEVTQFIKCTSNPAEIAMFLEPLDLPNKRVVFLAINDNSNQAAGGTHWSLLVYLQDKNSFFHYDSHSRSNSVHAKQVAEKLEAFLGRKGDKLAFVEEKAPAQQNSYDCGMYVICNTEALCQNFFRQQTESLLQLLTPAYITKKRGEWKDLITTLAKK

[3] = biological target: T3, Sentrin-specific protease 7 (Homo sapiens, UniProt Q9BQF6); assay type: functional;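 also: Luminescence-based dose-response confirmation of ultra-high-throughput screening hits, measuring inhibition of SENP7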
T3 sequence (Q9BQF6 whole entry): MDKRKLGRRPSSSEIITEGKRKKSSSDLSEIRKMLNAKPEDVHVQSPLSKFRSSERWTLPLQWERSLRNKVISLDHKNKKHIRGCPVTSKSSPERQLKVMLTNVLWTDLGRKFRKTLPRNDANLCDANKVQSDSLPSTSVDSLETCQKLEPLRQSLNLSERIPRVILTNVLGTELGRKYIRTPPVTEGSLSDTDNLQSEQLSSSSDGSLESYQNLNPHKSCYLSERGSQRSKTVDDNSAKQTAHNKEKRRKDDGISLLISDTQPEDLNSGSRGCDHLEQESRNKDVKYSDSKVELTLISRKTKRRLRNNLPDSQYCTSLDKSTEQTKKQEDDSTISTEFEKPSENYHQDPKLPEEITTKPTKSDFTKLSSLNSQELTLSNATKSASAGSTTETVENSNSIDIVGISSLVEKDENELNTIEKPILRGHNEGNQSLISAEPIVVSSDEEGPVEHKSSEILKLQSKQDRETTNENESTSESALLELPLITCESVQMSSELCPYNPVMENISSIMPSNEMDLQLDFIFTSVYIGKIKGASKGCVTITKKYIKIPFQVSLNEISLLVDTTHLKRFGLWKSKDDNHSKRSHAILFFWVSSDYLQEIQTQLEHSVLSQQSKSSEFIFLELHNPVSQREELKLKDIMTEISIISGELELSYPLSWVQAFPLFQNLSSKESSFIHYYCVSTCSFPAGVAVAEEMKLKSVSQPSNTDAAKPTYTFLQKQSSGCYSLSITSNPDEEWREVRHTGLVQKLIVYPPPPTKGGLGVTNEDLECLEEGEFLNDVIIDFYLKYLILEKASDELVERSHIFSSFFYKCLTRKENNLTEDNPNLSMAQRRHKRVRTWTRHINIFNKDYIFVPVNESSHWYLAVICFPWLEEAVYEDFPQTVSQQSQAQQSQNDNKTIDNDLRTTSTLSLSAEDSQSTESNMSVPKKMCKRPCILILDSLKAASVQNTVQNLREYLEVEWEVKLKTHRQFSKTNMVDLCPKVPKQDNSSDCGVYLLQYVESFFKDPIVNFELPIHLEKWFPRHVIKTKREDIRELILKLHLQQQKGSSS

Structure (SMILES)	AC50 [1]	IC50 [2]	IC50 [3]
CS(=O)(=O)c1ccc2c(c1)SC1=NC(=O)/C(=C/c3ccc(O)c(O)c3)C(=N)N12	1.9 µM (active)		
C=CCNC1=C(Cl)C(=O)c2ccccc2C1=O	19.4 µM (active)	10.1 µM (active)	23.9 µM (active)
CN(C)c1ccc(-c2nnc(-c3cccs3)o2)cc1		> 100 µM (inactive)	12.9 µM (active)
CCOC(=O)C(C(=O)OCC)c1cc(Br)c2noc3c2c1C(=O)c1ccccc1-3	> 20 µM (inactive)		
